From ChEMBL document CHEMBL2413072, “Synthesis and in vitro anticancer studies of novel C-2 arylidene congeners of lantadenes” (2013)

Key:
Format in all cases: functional
K562 [1] = assay: Growth inhibition of human K562 cells assessed as cell growth at 10^-4 M by sulforhodamine B assay; details: read-out: Activity
DU-145 = assay: Growth inhibition of human DU145 cells assessed as cell growth at 10^-8 M by sulforhodamine B assay; details: read-out: Activity
HCT-116 [2] = assay: Growth inhibition of human HCT116 cells assessed as cell growth at 10^-4 M by sulforhodamine B assay; details: read-out: Activity
MOLT-4 = assay: Growth inhibition of human MOLT4 cells by sulforhodamine B assay
RXF 393 = assay: Growth inhibition of human RXF393 cells by sulforhodamine B assay
[3] = Growth inhibition of human Hs 578T cells assessed as cell growth at 10^-8 M by sulforhodamine B assay; details: read-out: Activity
OVCAR-5 = assay: Growth inhibition of human OVCAR5 cells assessed as cell growth at 10^-4 M by sulforhodamine B assay; details: read-out: Activity
[4] = Growth inhibition of human NCI-ADR-RES cells assessed as cell growth at 10^-7 M by sulforhodamine B assay; details: read-out: Activity
OVCAR-4 [5] = assay: Growth inhibition of human OVCAR4 cells assessed as cell growth at 10^-8 M by sulforhodamine B assay; details: read-out: Activity
Malme-3M [6] = assay: Growth inhibition of human MALME-3M cells assessed as cell growth at 10^-4 M by sulforhodamine B assay; details: read-out: Activity
SF-295 [7] = assay: Growth inhibition of human SF295 cells by sulforhodamine B assay
NCI-H522 = assay: Growth inhibition of human NCI-H522 cells assessed as cell growth at 10^-7 M by sulforhodamine B assay; details: read-out: Activity
NCI-H322M [8] = assay: Growth inhibition of human NCI-H322M cells assessed as cell growth at 10^-7 M by sulforhodamine B assay; details: read-out: Activity
K562 [9] = assay: Growth inhibition of human K562 cells assessed as cell growth at 10^-8 M by sulforhodamine B assay; details: read-out: Activity
HCT-15 = assay: Growth inhibition of human HCT15 cells assessed as cell growth at 10^-6 M by sulforhodamine B assay; details: read-out: Activity
HCT-116 [10] = assay: Growth inhibition of human HCT116 cells assessed as cell growth at 10^-8 M by sulforhodamine B assay; details: read-out: Activity
UACC-62 = assay: Growth inhibition of human UACC62 cells assessed as cell growth at 10^-8 M by sulforhodamine B assay; details: read-out: Activity
SF-268 = assay: Growth inhibition of human SF268 cells assessed as cell growth at 10^-8 M by sulforhodamine B assay; details: read-out: Activity
SF-295 [11] = assay: Growth inhibition of human SF295 cells assessed as cell growth at 10^-8 M by sulforhodamine B assay; details: read-out: Activity
HOP-92 = assay: Growth inhibition of human HOP92 cells by sulforhodamine B assay
NCI-H226 = assay: Growth inhibition of human NCI-H226 cells assessed as cell growth at 10^-8 M by sulforhodamine B assay; details: read-out: Activity
SK-MEL-5 = assay: Growth inhibition of human SK-MEL-5 cells assessed as cell growth at 10^-7 M by sulforhodamine B assay; details: read-out: Activity
MDA-MB-231 = assay: Growth inhibition of human MDA-MB-231 cells assessed as cell growth at 10^-7 M by sulforhodamine B assay; details: read-out: Activity
NCI-H23 = assay: Growth inhibition of human NCI-H23 cells assessed as cell growth at 10^-8 M by sulforhodamine B assay; details: read-out: Activity
SR = assay: Growth inhibition of human SR cells assessed as cell growth at 10^-4 M by sulforhodamine B assay; details: read-out: Activity
SF-539 = assay: Growth inhibition of human SF539 cells assessed as cell growth at 10^-6 M by sulforhodamine B assay; details: read-out: Activity
SK-OV-3 = assay: Growth inhibition of human SKOV3 cells assessed as cell growth at 10^-4 M by sulforhodamine B assay; details: read-out: Activity
UACC-257 = assay: Growth inhibition of human UACC257 cells assessed as cell growth at 10^-7 M by sulforhodamine B assay; details: read-out: Activity
U-251 = assay: Growth inhibition of human U251 cells assessed as cell growth at 10^-7 M by sulforhodamine B assay; details: read-out: Activity
M14 = assay: Growth inhibition of human M14 cells assessed as cell growth at 10^-8 M by sulforhodamine B assay; details: read-out: Activity
LOX IMVI = assay: Growth inhibition of human LOXIMVI cells by sulforhodamine B assay
HL-60(TB) = assay: Growth inhibition of human HL-60(TB) cells by sulforhodamine B assay
UO-31 = assay: Growth inhibition of human UO31 cells assessed as cell growth at 10^-4 M by sulforhodamine B assay; details: read-out: Activity
ACHN = assay: Growth inhibition of human ACHN cells by sulforhodamine B assay
CCRF-CEM = assay: Growth inhibition of human CCRF-CEM cells assessed as cell growth at 10^-8 M by sulforhodamine B assay; details: read-out: Activity
OVCAR-4 [12] = assay: Growth inhibition of human OVCAR4 cells assessed as cell growth at 10^-6 M by sulforhodamine B assay; details: read-out: Activity
NCI-H322M [13] = assay: Growth inhibition of human NCI-H322M cells by sulforhodamine B assay
Malme-3M [14] = assay: Growth inhibition of human MALME-3M cells assessed as cell growth at 10^-8 M by sulforhodamine B assay; details: read-out: Activity
KM12 = assay: Growth inhibition of human KM12 cells assessed as cell growth at 10^-8 M by sulforhodamine B assay; details: read-out: Activity
[15] = read-out: LC50 (the source's name)
[16] = read-out: pLC50 (the source's name) (converted)

CC1(C)C[C@@H](O)[C@]2(C(=O)O)CC[C@]3(C)C(=CC[C@@H]4[C@@]5(C)C/C(=C\C=C\c6ccccc6)C(=O)C(C)(C)[C@@H]5CC[C@]43C)[C@@H]2C1
growth at 100 µM (K562 [1]): 1%
growth at 0.01 µM (DU-145): 106%
growth at 100 µM (HCT-116 [2]): -55%
GI50 (MOLT-4; read-out: GI50): 2.48 µM
CC50 (MOLT-4; [15]): > 100 µM
TGI (MOLT-4; read-out: TGI): 7.84 µM
GI50 (MOLT-4; read-out: pGI50 (converted)): 2.45 µM
CC50 (MOLT-4; [16]): > 100 µM
TGI (MOLT-4; read-out: pTGI (converted)): 7.76 µM
GI50 (RXF 393; read-out: GI50): 2.65 µM
CC50 (RXF 393; [15]): 29.7 µM
TGI (RXF 393; read-out: TGI): 7.65 µM
GI50 (RXF 393; read-out: pGI50 (converted)): 2.63 µM
CC50 (RXF 393; [16]): 29.5 µM
TGI (RXF 393; read-out: pTGI (converted)): 7.59 µM
growth at 0.01 µM [3]: 97%
growth at 100 µM (OVCAR-5): -97%
growth at 0.1 µM [4]: 108%
growth at 0.01 µM (OVCAR-4 [5]): 100%
growth at 100 µM (Malme-3M [6]): -60%
GI50 (SF-295 [7]; read-out: GI50): 2.4 µM
CC50 (SF-295 [7]; [15]): 49.8 µM
TGI (SF-295 [7]; read-out: TGI): 7.56 µM
GI50 (SF-295 [7]; read-out: pGI50 (converted)): 2.4 µM
CC50 (SF-295 [7]; [16]): 50.1 µM
TGI (SF-295 [7]; read-out: pTGI (converted)): 7.59 µM
growth at 0.1 µM (NCI-H522): 94%
growth at 0.1 µM (NCI-H322M [8]): 96%
growth at 0.01 µM (K562 [9]): 114%
growth at 1 µM (HCT-15): 95%
growth at 0.01 µM (HCT-116 [10]): 100%
growth at 0.01 µM (UACC-62): 96%
growth at 0.01 µM (SF-268): 93%
growth at 0.01 µM (SF-295 [11]): 99%
GI50 (HOP-92; read-out: GI50): 1.92 µM
CC50 (HOP-92; [15]): 36.6 µM
TGI (HOP-92; read-out: TGI): 6.67 µM
GI50 (HOP-92; read-out: pGI50 (converted)): 1.91 µM
CC50 (HOP-92; [16]): 36.3 µM
TGI (HOP-92; read-out: pTGI (converted)): 6.61 µM
growth at 0.01 µM (NCI-H226): 97%
growth at 0.1 µM (SK-MEL-5): 95%
growth at 0.1 µM (MDA-MB-231): 102%
growth at 0.01 µM (NCI-H23): 95%
growth at 100 µM (SR): -24%
growth at 1 µM (SF-539): 90%
growth at 100 µM (SK-OV-3): -84%
growth at 0.1 µM (UACC-257): 92%
growth at 0.1 µM (U-251): 95%
growth at 0.01 µM (M14): 97%
GI50 (LOX IMVI; read-out: GI50): 1.9 µM
CC50 (LOX IMVI; [15]): 6.68 µM
TGI (LOX IMVI; read-out: TGI): 3.56 µM
GI50 (LOX IMVI; read-out: pGI50 (converted)): 1.91 µM
CC50 (LOX IMVI; [16]): 6.61 µM
TGI (LOX IMVI; read-out: pTGI (converted)): 3.55 µM
GI50 (HL-60(TB); read-out: GI50): 2.92 µM
CC50 (HL-60(TB); [15]): > 100 µM
TGI (HL-60(TB); read-out: TGI): 6.89 µM
GI50 (HL-60(TB); read-out: pGI50 (converted)): 2.88 µM
CC50 (HL-60(TB); [16]): > 100 µM
TGI (HL-60(TB); read-out: pTGI (converted)): 6.92 µM
growth at 100 µM (UO-31): -82%
GI50 (ACHN; read-out: GI50): 3.65 µM
CC50 (ACHN; [15]): 39.2 µM
TGI (ACHN; read-out: TGI): 13.3 µM
GI50 (ACHN; read-out: pGI50 (converted)): 3.63 µM
CC50 (ACHN; [16]): 38.9 µM
TGI (ACHN; read-out: pTGI (converted)): 13.2 µM
growth at 0.01 µM (CCRF-CEM): 95%
growth at 1 µM (OVCAR-4 [12]): 89%
GI50 (NCI-H322M [13]; read-out: GI50): 3.45 µM
LC50 (50% lethal concentration) (NCI-H322M [13]; read-out: LC50): 48.7 µM
TGI (NCI-H322M [13]; read-out: TGI): 13.7 µM
GI50 (NCI-H322M [13]; read-out: pGI50 (converted)): 3.47 µM
LC50 (50% lethal concentration) (NCI-H322M [13]; read-out: pLC50 (converted)): 49 µM
TGI (NCI-H322M [13]; read-out: pTGI (converted)): 13.8 µM
growth at 0.01 µM (Malme-3M [14]): 92%
growth at 0.01 µM (KM12): 101%
